The record followed here is patent US5612373A, “Certain diacyl hydrazine derivatives” (Zeneca Limited, priority 1993, dated 1997).

For orientation: IC50 means the concentration that gives 50% inhibition.

In experiment [1] the target is T1, purified human platelet fibrinogen receptor (GPIIb/IIIa) (Homo sapiens, UniProt P05106+P08514).
T1 construct: Glycoprotein IIb/IIIa is isolated from human platelet lysates; from tissue
The experiment is described as follows: test (b): GPIIb/IIIa ELISA, inhibition of biotinylated fibrinogen binding. The note with it: biotinylated fibrinogen 10 nM, read-out: pIC50 (-log(IC50)), 50% inhibition of biotinylated fibrinogen binding (converted). The protocol: (i) Preparation of human platelet lysates.
Platelet rich plasma (prp) is harvested by centrifugation (1000 rpm, 15 minutes) of whole blood anticoagulated with acid citrate dextrose (trisodium citrate 85 mM, citric acid 70 mM, d-glucose 110 mM), 1 part to 6 parts blood. Prostacyclin (PGI2, 1 μM) is added to the prp before centrifugation (2400 rpm, 15 min) and the resulting pellet is resuspended in modified Tyrodes' solution (NaCl 130 mM, KCl 26 mM, NaHCO3 12 mM, NaH2 PO4 0.5 mM, MgCl2 1 mM, CaCl2 20 mM, Glucose 12 mM, HEPES 5 mM) containing bovine serum albumin 3.5 g/L, PGI2 1 μM and hirudin 0.5 U/ml. The platelet suspension is centrifuged (2400 rpm, 15 minutes) and the resultant pellet resuspended in 500 μl of lysis buffer (octyl glucoside 50 mM, HEPES 10 mM, NaCl 150 mM, CaCl2 1 mM, MgCl2 1 mM, PMSF 1 mM, NEM 10 mM, leupeptin 0.1 mM), agitated at 4° C. for 15 minutes then centrifuged at 24000 rpm, 15 minutes. The supernatant is stored at 4° C. and the pellet re-suspended in 500 μl of lysis buffer. […]
96 well microtitre plates are coated with 100 μl purified human platelet fibrinogen receptor (GPIIb/IIIa) diluted in coating buffer (Tris-HCl 20 mM, NaCl 150 mM, CaCl2 1 mM, pH7.4) and left overnight at 4° C. […] Colour is allowed to develop for 10-15 minutes before optical densities are read at 650 nm. […]

The next experiment deals with platelet aggregation. Description: test (a) modified: activity after oral dosing to dogs. In kind it is in vivo. Conditions: dosed orally to dogs at 3 mg/kg. As to the method: Test (a) may be modified so as to assess the effects of a test compound ex vivo on the aggregation of human blood platelets after administration of the test compound to a laboratory animal, such as a rat, rabbit, guinea pig, mouse or dog. For example, groups of fourmale, fasted Alderley Park Wistar rats are orally dosed with a test compound or appropriate vehicle, and at suitable time intervals (1, 3, 5 and 8 hours after dosing) animals are anaesthetised with fluothane and bled by heart puncture. Blood is collected into 3.2% citrate (1 part to 9 parts whole blood) and platelet poor plasma (ppp) prepared by centrifugation (4500×g for 10 minutes). […]
Equal volumes (125 μl ) of rat ppp and human prp are mixed together, ADP added, and the whole incubated (37° C.) and stirred (900 rpm) in a BioData platelet aggregometer. Aggregation is induced with ADP and agonist EC50 values calculated for human prp/rat ppp mixtures from animals dosed with test compound or vehicle. A mean concentration ratio (concentration of ADP required to cause a 50% aggregation response in human prp/rat ppp mixtures from animals dosed with antagonist, divided by the concentration of ADP to cause 50% aggregation in human prp/rat ppp mixtures from animals dosed with vehicle) is calculated at each time point. […]

Experiment [2] has as its target T2, ADP stimulated platelet aggregation in human, citrated, platelet-rich plasma (Homo sapiens, UniProt P05106+P08514).
T2 construct: aggregating human, citrated, platelet-rich plasma; endogenous in cells; host or cells: human platelets in citrated platelet-rich plasma
Description: test (a): inhibition of ADP stimulated platelet aggregation (Born). Conditions: ADP-induced aggregation, read-out: pA2 (potency of platelet aggregation inhibition) (converted). In kind it is cell-based. An excerpt: (i) aggregating human, citrated, platelet-rich plasma by addition of adenosine diphosphate (ADP) so as to generate a dose-response curve;
(ii) generating a dose-response curve for ADP stimulated platelet aggregation in the presence of increasing amounts of a test compound (generally in the range 10^-5 M to 10^-10 M); and
(iii) calculating a pA2 value indicating potency of platelet aggregation inhibition for the test compound, averaged over several concentrations, from the calculated 50% response value for ADP aggregation in the presence and absence of the test compound.

T2 sequence (P08514 32-887 limits assumed): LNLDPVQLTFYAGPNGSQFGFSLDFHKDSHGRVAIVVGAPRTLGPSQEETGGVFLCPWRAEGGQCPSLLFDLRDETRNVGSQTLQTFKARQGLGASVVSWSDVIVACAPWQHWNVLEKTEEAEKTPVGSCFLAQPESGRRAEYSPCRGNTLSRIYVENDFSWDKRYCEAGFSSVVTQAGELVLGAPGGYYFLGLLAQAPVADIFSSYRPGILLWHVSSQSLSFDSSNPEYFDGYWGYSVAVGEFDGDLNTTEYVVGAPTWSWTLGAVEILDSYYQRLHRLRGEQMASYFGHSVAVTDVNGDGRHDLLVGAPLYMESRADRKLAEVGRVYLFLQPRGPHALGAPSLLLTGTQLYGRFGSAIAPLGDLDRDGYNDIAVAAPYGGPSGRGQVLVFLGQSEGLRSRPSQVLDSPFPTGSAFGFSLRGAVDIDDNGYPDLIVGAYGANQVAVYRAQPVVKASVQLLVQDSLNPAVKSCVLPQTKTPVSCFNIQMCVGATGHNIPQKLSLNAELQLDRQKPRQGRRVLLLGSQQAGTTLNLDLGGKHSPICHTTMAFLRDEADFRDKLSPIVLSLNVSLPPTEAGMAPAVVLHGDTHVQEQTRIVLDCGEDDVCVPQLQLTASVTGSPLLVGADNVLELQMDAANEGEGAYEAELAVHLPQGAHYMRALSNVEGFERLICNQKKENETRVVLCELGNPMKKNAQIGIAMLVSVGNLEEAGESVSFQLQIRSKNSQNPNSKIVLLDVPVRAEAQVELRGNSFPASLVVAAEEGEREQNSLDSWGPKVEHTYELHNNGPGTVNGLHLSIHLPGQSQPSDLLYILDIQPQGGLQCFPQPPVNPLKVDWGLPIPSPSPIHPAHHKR
T2 sequence (P08514 891-1039 limits assumed): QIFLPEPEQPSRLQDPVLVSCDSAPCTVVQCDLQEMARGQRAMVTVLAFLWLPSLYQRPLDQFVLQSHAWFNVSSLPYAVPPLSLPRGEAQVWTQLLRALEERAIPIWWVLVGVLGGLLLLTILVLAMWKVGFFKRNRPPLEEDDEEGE
T2 sequence (P05106 27-788): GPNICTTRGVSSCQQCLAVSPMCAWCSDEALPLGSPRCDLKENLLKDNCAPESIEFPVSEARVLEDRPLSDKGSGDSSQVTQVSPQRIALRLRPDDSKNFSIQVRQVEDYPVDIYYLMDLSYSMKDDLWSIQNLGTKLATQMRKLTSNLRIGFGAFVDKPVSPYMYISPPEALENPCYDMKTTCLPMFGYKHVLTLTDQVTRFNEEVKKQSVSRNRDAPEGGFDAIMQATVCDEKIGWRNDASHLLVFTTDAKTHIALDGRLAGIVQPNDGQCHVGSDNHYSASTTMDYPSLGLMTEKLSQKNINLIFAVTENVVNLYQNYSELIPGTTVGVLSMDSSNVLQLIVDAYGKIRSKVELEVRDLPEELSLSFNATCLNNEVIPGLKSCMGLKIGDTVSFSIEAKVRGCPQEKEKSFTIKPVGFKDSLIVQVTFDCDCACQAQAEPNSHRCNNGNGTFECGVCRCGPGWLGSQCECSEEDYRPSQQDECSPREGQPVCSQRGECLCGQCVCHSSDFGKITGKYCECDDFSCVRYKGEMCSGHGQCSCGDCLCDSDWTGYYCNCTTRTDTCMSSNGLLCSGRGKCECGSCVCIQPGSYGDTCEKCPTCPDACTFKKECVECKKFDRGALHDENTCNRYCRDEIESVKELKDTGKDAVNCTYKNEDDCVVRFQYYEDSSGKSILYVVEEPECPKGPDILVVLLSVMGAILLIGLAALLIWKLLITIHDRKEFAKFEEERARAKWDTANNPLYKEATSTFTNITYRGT
T1 sequence (P08514 32-887 limits assumed): as the sequence (P08514 32-887 limits assumed) above
T1 sequence (P08514 891-1039 limits assumed): as the sequence (P08514 891-1039 limits assumed) above
T1 sequence (P05106 27-788): as the sequence (P05106 27-788) above

Take `COC(=O)COc1ccc(C(=O)NNC(=O)c2ccc(C(=N)N)cc2)cc1` [Example 12, Methyl 4-[3-(4-amidinobenzoyl)carbazoyl]phenoxyacetate]: the IC50 in experiment [1] was 1120 nM. Besides, in the experiment with platelet aggregation, the “duration of activity after oral dosing” value is reported as “up to 24 hours”. For the same compound, the Kb in experiment [2] is 200 nM.
Regarding `N=C(N)c1ccc(C(=O)NNC(=O)c2ccc(OCC(=O)O)cc2)cc1` [Example 13, 4-[3-(4-Amidinobenzoyl)carbazoyl]phenoxyacetic acid], the IC50 in experiment [1] is 15.8 nM. In experiment [2], the Kb is 7.94 nM.
